The results in this text go back to patent US20240140991A1, “ANTIBIOTIC NATURAL PRODUCT ANALOGUES” (THE QUEEN'S UNIVERSITY OF BELFAST, priority 2021, published 2024).

Converted amounts (≈) assume the structure as drawn. Positions of bridges follow the written chain, without caps; N, C: chain ends. Non-standard residues stand in square brackets, D forms with d. Residues, ends and D or L forms follow the SMILES beside them. ξ: configuration not given here. *: point of attachment. Octanoyl(7-Me) = CC(C)CCCCCC(=O)*; Palmitoyl = CCCCCCCCCCCCCCCC(=O)*; Hexanoyl(4ξ-Me) = CCC(C)CCC(=O)*; X2 = CC(=O)[C@H](CC(N)=O)C(=O)*; Lauroyl = CCCCCCCCCCCC(=O)*; Decanoyl = CCCCCCCCCC(=O)*; dOrn = NCCC[C@@H](N)C(=O)O; Octanoyl = CCCCCCCC(=O)*; Orn = NCCC[C@H](N)C(=O)O; Hexanoyl = CCCCCC(=O)*; OAll = C=CCO*

In the first assay the test system is Escherichia coli ATCC 25922. It is filed as cell-based. The note with it: ATCC 25922. Summed up: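 Broth microdilution in MHB per CLSI; inoculum 2×10^5 CFU mL^−1 from log-phase TSB cultures at OD600 0.5. Plates incubated 16 hours at 37° C with shaking at 220 rpm. MIC is the lowest concentration preventing visible growth.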
Turning to `CCCCCCCC(=O)N[C@H](CO)C(=O)N[C@H](Cc1ccc(O)cc1)C(=O)N[C@H](Cc1c[nH]c2ccccc12)C(=O)N[C@H](CCCN)C(=O)N[C@@H](CCCN)C(=O)NCC(=O)N[C@H](CCCN)C(=O)N[C@@H](Cc1c[nH]c2ccccc12)C(=O)N[C@@H](CO)C(=O)N[C@H](C(=O)N[C@@H](CC(N)=O)C(=O)NCC(N)=O)[C@@H](C)CC` [ΔG13-Ser9-C8] (Octanoyl-[dS][dY][dW][dOrn][Orn]G[dOrn]WSING-NH2), the “Minimum inhibitory concentration (MIC)” value was determined as 4 µg/mL (≈ 2.6 µM). On the same count and under the same terms, for `CC[C@H](C)[C@H](NC(=O)[C@H](CO)NC(=O)[C@H](Cc1c[nH]c2ccccc12)NC(=O)[C@@H](CCCN)NC(=O)CNC(=O)[C@H](CCCN)NC(=O)[C@@H](CCCN)NC(=O)[C@@H](Cc1c[nH]c2ccccc12)NC(=O)[C@@H](Cc1ccc(O)cc1)NC(=O)[C@@H](CO)NC(=O)CCCCCC(C)C)C(=O)N[C@@H](CC(N)=O)C(=O)NCC(N)=O` [ΔG13-Ser9-isoC9] ({Octanoyl(7-Me)}-[dS][dY][dW][dOrn][Orn]G[dOrn]WSING-NH2) the value was 4 µg/mL (≈ 2.58 µM); for `CC(C)CCCCCC(=O)N[C@H](CO)C(=O)N[C@H](Cc1ccc(O)cc1)C(=O)N[C@H](Cc1c[nH]c2ccccc12)C(=O)N[C@H](CCCN)C(=O)N[C@@H](CCCN)C(=O)NCC(=O)N[C@H](CCCN)C(=O)N[C@@H](Cc1c[nH]c2ccccc12)C(=O)N[C@H](C(N)=O)[C@@H](C)O` [ΔI10-G13, FA-sywoOGoWT-CONH2] ({Octanoyl(7-Me)}-[dS][dY][dW][dOrn][Orn]G[dOrn]WT-NH2), 16 µg/mL (≈ 12.5 µM). Regarding `CC[C@H](C)[C@H](NC(=O)[C@@H](NC(=O)[C@H](Cc1c[nH]c2ccccc12)NC(=O)[C@@H](CCCN)NC(=O)CNC(=O)[C@H](CCCN)NC(=O)[C@@H](CCCN)NC(=O)[C@@H](Cc1c[nH]c2ccccc12)NC(=O)[C@@H](Cc1ccc(O)cc1)NC(=O)[C@@H](CO)NC(=O)CCCCCC(C)C)[C@@H](C)O)C(N)=O` [ΔN11-G13, FA-sywoOGoWTI-CONH2] ({Octanoyl(7-Me)}-[dS][dY][dW][dOrn][Orn]G[dOrn]WTI-NH2), the “Minimum inhibitory concentration (MIC)” value stood at 4 µg/mL (≈ 2.87 µM). The same measure, in the same setting: for `CC(C)CCCCCC(=O)N[C@H](CO)C(=O)N[C@H](Cc1ccc(O)cc1)C(=O)N[C@H](Cc1c[nH]c2ccccc12)C(=O)N[C@H](CCCN)C(=O)N[C@@H](CCCN)C(=O)NCC(=O)N[C@H](CCCN)C(=O)N[C@@H](Cc1c[nH]c2ccccc12)C(N)=O` [ΔT9-G13, FA-sywoOGoW-CONH2] ({Octanoyl(7-Me)}-[dS][dY][dW][dOrn][Orn]G[dOrn]W-NH2) the value was 16 µg/mL (≈ 13.6 µM).

The assay is the same for the next values; noted with them: in vitro activity quoted in the in vivo section.
Regarding polymyxin B [reference compound], the MIC values against E. coli ATCC 25922 came to 0.5 µg/mL.

The next assay deals with E. coli. It is filed as cell-based.
Settings: not given
As for the experimental part: Minimum inhibitory concentration (MIC) was determined by broth microdilution according to CLSI guidelines. Blood agar plates were inoculated with glycerol stocks of Escherichia coli ATCC 25922, E. coli ATCC 25922 MCR-1, E. coli MCR-1 (clinical isolate from Utrecht Medical Center, NL), E. coli EQAS MCR-2 (clinical isolate from Wageningen University and Research, NL), Kiebsielia pneumoniae ATCC 11228, K. pneumoniae ATCC 13883, K. pneumonia 2048 (clinical isolate from Vrije Universiteit Amsterdam Medical Center, NL), K. pneumonia JS-123 (clinical isolate from Utrecht Medical Center, NL), Acinetobacter baumannii ATCC 17961, A. baumannil ATCC 17978, A. baumannii 2018-006 (clinical isolate from Rijksinstituut voor Volksgezondheid en Milieu, NL), A. baumannii MDR (clinical isolate from Vrije Universiteit Amsterdam Medical Center, NL), Pseudomonas aeruginosa ATCC 27853, P. aeruginosa PAO1, P. aeruginosa NRZ-03961 (Reference strain from Das Nationale Referenzzentrum für gramnegative Krankenhauserreger, DE), P. aeruginosa M-120 (clinical isolate from Leiden University Medical Center, NL) and Staphylococcus aureus USA300 (clinical isolate from Texas Children's Hospitalm, USA). E. coli 25922 MCR1 was grown on LB agar supplemented with kanamycin. The inoculated agar plates were then incubated for 16 hours at 37° C. Individually grown colonies were subsequently used to inoculate 3 mL aliquots of TSB that were then incubated at 37° C. with shaking at 220 rpm. In parallel, the compounds to be assessed were serially diluted with Mueller-Hinton broth (MHB) in polypropylene 96-well plates (50 μL in each well). Once the OD600 of the bacterial suspensions reached 0.5, the bacteria were diluted with MHB (final concentration 2×10^5 CFU mL^−1) and added to the microplates containing the test compounds (50 μL to each well, final volume: 100 μL). The well-plates were sealed with an adhesive membrane and after 16 hours of incubation at 37° C. with shaking at 220 rpm the wells were visually inspected for bacterial growth. MIC values were defined as the lowest concentration of the compound that prevented visible growth of bacteria.
MIC values were determined for the lipid analogues of brevicidine.
MIC values were determined for the position 9 analogues of linear brevicidine.
With `CC[C@H](C)[C@@H]1NC(=O)[C@@H](NC(=O)[C@H](Cc2c[nH]c3ccccc23)NC(=O)[C@@H](CCCN)NC(=O)CNC(=O)[C@H](CCCN)NC(=O)[C@@H](CCCN)NC(=O)[C@@H](Cc2c[nH]c3ccccc23)NC(=O)[C@@H](Cc2ccc(O)cc2)NC(=O)[C@@H](CC(N)=O)C(C)=O)[C@@H](C)OC(=O)[C@H](CO)NC(=O)CNC1=O` [Brev-C2] (X2-[dY][dW][dOrn][Orn]G[dOrn]WTIGS; ester 8-C), the “E. coli MIC” value is 50 µg/mL.

In the case of `CCCCCC(=O)N[C@H](CC(N)=O)C(=O)N[C@H](Cc1ccc(O)cc1)C(=O)N[C@H](Cc1c[nH]c2ccccc12)C(=O)N[C@H](CCCN)C(=O)N[C@@H](CCCN)C(=O)NCC(=O)N[C@H](CCCN)C(=O)N[C@@H](Cc1c[nH]c2ccccc12)C(=O)N[C@@H]1C(=O)N[C@@H]([C@@H](C)CC)C(=O)NCC(=O)N[C@@H](CO)C(=O)O[C@@H]1C` [Brev-C6] (Hexanoyl-[dN][dY][dW][dOrn][Orn]G[dOrn]WTIGS; ester 9-C), the “E. coli MIC” value is 25 µg/mL.

`CCCCCCCC(=O)N[C@H](CC(N)=O)C(=O)N[C@H](Cc1ccc(O)cc1)C(=O)N[C@H](Cc1c[nH]c2ccccc12)C(=O)N[C@H](CCCN)C(=O)N[C@@H](CCCN)C(=O)NCC(=O)N[C@H](CCCN)C(=O)N[C@@H](Cc1c[nH]c2ccccc12)C(=O)N[C@@H]1C(=O)N[C@@H]([C@@H](C)CC)C(=O)NCC(=O)N[C@@H](CO)C(=O)O[C@@H]1C` [Brev-C8] (Octanoyl-[dN][dY][dW][dOrn][Orn]G[dOrn]WTIGS; ester 9-C): the “E. coli MIC” value was 25 µg/mL. Same read-out and setting: for `CCCCCCCCCC(=O)N[C@H](CC(N)=O)C(=O)N[C@H](Cc1ccc(O)cc1)C(=O)N[C@H](Cc1c[nH]c2ccccc12)C(=O)N[C@H](CCCN)C(=O)N[C@@H](CCCN)C(=O)NCC(=O)N[C@H](CCCN)C(=O)N[C@@H](Cc1c[nH]c2ccccc12)C(=O)N[C@@H]1C(=O)N[C@@H]([C@@H](C)CC)C(=O)NCC(=O)N[C@@H](CO)C(=O)O[C@@H]1C` [Brev-C10] (Decanoyl-[dN][dY][dW][dOrn][Orn]G[dOrn]WTIGS; ester 9-C) the value was 1.56 µg/mL; for `CCCCCCCCCCCC(=O)N[C@H](CC(N)=O)C(=O)N[C@H](Cc1ccc(O)cc1)C(=O)N[C@H](Cc1c[nH]c2ccccc12)C(=O)N[C@H](CCCN)C(=O)N[C@@H](CCCN)C(=O)NCC(=O)N[C@H](CCCN)C(=O)N[C@@H](Cc1c[nH]c2ccccc12)C(=O)N[C@@H]1C(=O)N[C@@H]([C@@H](C)CC)C(=O)NCC(=O)N[C@@H](CO)C(=O)O[C@@H]1C` [Brev-C12] (Lauroyl-[dN][dY][dW][dOrn][Orn]G[dOrn]WTIGS; ester 9-C), 3.12 µg/mL; for `CCCCCCCCCCCCCCCC(=O)N[C@H](CC(N)=O)C(=O)N[C@H](Cc1ccc(O)cc1)C(=O)N[C@H](Cc1c[nH]c2ccccc12)C(=O)N[C@H](CCCN)C(=O)N[C@@H](CCCN)C(=O)NCC(=O)N[C@H](CCCN)C(=O)N[C@@H](Cc1c[nH]c2ccccc12)C(=O)N[C@@H]1C(=O)N[C@@H]([C@@H](C)CC)C(=O)NCC(=O)N[C@@H](CO)C(=O)O[C@@H]1C` [Brev-C16] (Palmitoyl-[dN][dY][dW][dOrn][Orn]G[dOrn]WTIGS; ester 9-C), more than 100 µg/mL.

Consider `CC[C@H](C)[C@@H]1NC(=O)[C@@H](NC(=O)[C@H](Cc2c[nH]c3ccccc23)NC(=O)[C@@H](CCCN)NC(=O)CNC(=O)[C@H](CCCN)NC(=O)[C@@H](CCCN)NC(=O)[C@@H](Cc2c[nH]c3ccccc23)NC(=O)[C@@H](Cc2ccc(O)cc2)NC(=O)[C@H](N)CC(N)=O)[C@@H](C)OC(=O)[C@H](CO)NC(=O)CNC1=O` [Brev-NH2] (H-[dN][dY][dW][dOrn][Orn]G[dOrn]WTIGS; ester 9-C), for which the “E. coli MIC” value came to 50 µg/mL. Still for that read-out and setting: for `C=CCOC(=O)CC[C@H](NC(=O)[C@H](Cc1c[nH]c2ccccc12)NC(=O)[C@@H](CCCN)NC(=O)CNC(=O)[C@H](CCCN)NC(=O)[C@@H](CCCN)NC(=O)[C@@H](Cc1c[nH]c2ccccc12)NC(=O)[C@@H](Cc1ccc(O)cc1)NC(=O)[C@@H](CC(N)=O)NC(=O)CCC(C)CC)C(=O)N[C@H](C(=O)NCC(N)=O)[C@@H](C)CC` (some centres unmarked) [Und(9-AllGlu)-NH2] ({Hexanoyl(4ξ-Me)}-[dN][dY][dW][dOrn][Orn]G[dOrn]WE(OAll)IG-NH2) the value was 0.4 µg/mL; for `CCC(C)CCC(=O)N[C@H](CC(N)=O)C(=O)N[C@H](Cc1ccc(O)cc1)C(=O)N[C@H](Cc1c[nH]c2ccccc12)C(=O)N[C@H](CCCN)C(=O)N[C@@H](CCCN)C(=O)NCC(=O)N[C@H](CCCN)C(=O)N[C@@H](Cc1c[nH]c2ccccc12)C(=O)N[C@@H](CC(=O)O)C(=O)N[C@H](C(=O)NCC(N)=O)[C@@H](C)CC` (some centres unmarked) [Und(9-Asp)-NH2] ({Hexanoyl(4ξ-Me)}-[dN][dY][dW][dOrn][Orn]G[dOrn]WDIG-NH2), 12.5 µg/mL; for `CCC(C)CCC(=O)N[C@H](CC(N)=O)C(=O)N[C@H](Cc1ccc(O)cc1)C(=O)N[C@H](Cc1c[nH]c2ccccc12)C(=O)N[C@H](CCCN)C(=O)N[C@@H](CCCN)C(=O)NCC(=O)N[C@H](CCCN)C(=O)N[C@@H](Cc1c[nH]c2ccccc12)C(=O)N[C@@H](CCC(N)=O)C(=O)N[C@H](C(=O)NCC(N)=O)[C@@H](C)CC` (some centres unmarked) [Und(9-Gln)-NH2] ({Hexanoyl(4ξ-Me)}-[dN][dY][dW][dOrn][Orn]G[dOrn]WQIG-NH2), 0.78 µg/mL. The same measure, in the same setting: for `CCC(C)CCC(=O)N[C@H](CC(N)=O)C(=O)N[C@H](Cc1ccc(O)cc1)C(=O)N[C@H](Cc1c[nH]c2ccccc12)C(=O)N[C@H](CCCN)C(=O)N[C@@H](CCCN)C(=O)NCC(=O)N[C@H](CCCN)C(=O)N[C@@H](Cc1c[nH]c2ccccc12)C(=O)N[C@@H](CC(C)C)C(=O)N[C@H](C(=O)NCC(N)=O)[C@@H](C)CC` (some centres unmarked) [Und(9-Leu)-NH2] ({Hexanoyl(4ξ-Me)}-[dN][dY][dW][dOrn][Orn]G[dOrn]WLIG-NH2) the value was 0.78 µg/mL.
